Results published in PubChem BioAssay AID328 (DTP/NCI, 2004).
Several values for one entry are separate records, joined by “and”; a condition that tells them apart may be missing. Identical values can stand only once. Inconclusive results and toxic doses are left out. The calls were made as follows: active = survival T/C of 150% or more; inactive = T/C below 125% in these data.

Test system: BDF1 mice, P388 leukemia ip, median survival T/C
Test: NCI In Vivo Anticancer Drug Screen. Data for tumor model P388 Leukemia (intraperitoneal) in B6D2F1 (BDF1) mice
Conditions: endpoint: median survival time, higher = longer survival
Summary of the method: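 In tumour-bearing mice, survival after compound treatment is set against the vehicle group and given as a quotient.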

[1] = dose: 50.0 mg/kg/injection, schedule: Q01DX009 (ip), vehicle: saline
[2] = dose: 50.0 mg/kg/injection, schedule: Q04DX003 (ip), vehicle: saline
[3] = dose: 100.0 mg/kg/injection, schedule: Q04DX003 (ip), vehicle: saline
[4] = dose: 100.0 mg/kg/injection, schedule: Q04DX003 (ip), vehicle: saline with Tween-80
[5] = dose: 400.0 mg/kg/injection, schedule: Q04DX003 (ip), vehicle: saline with Tween-80
[6] = dose: 3.12 mg/kg/injection, schedule: Q01DX009 (ip), vehicle: saline
[7] = dose: 6.25 mg/kg/injection, schedule: Q01DX009 (ip), vehicle: saline
[8] = dose: 12.5 mg/kg/injection, schedule: Q01DX009 (ip), vehicle: saline
[9] = dose: 100.0 mg/kg/injection, schedule: Q01DX009 (ip), vehicle: saline with Tween-80
[10] = dose: 200.0 mg/kg/injection, schedule: Q01DX009 (ip), vehicle: saline with Tween-80
[11] = dose: 25.0 mg/kg/injection, schedule: Q01DX009 (ip), vehicle: saline

Measured: T/C

O=C(c1ccccc1Cl)n1c(Cl)c(/C=N\Nc2cccc([N+](=O)[O-])c2)c2ccccc21
inactive: dose: 100.0 mg/kg/injection, schedule: Q04DX002 (ip), vehicle: Klucel (hydroxypropylcellulose) (HPC) 90 % of control | dose: 200.0 mg/kg/injection, schedule: Q04DX002 (ip), vehicle: Klucel (hydroxypropylcellulose) (HPC) 89 % of control | dose: 400.0 mg/kg/injection, schedule: Q04DX002 (ip), vehicle: Klucel (hydroxypropylcellulose) (HPC) 90 % of control

CC(=O)Nc1ccc(C=O)cc1[N+](=O)[O-]
inactive: dose: 100.0 mg/kg/injection, schedule: Q01DX009 (ip), vehicle: Klucel (hydroxypropylcellulose) (HPC) 110 % of control | dose: 200.0 mg/kg/injection, schedule: Q01DX009 (ip), vehicle: Klucel (hydroxypropylcellulose) (HPC) 100 % of control | dose: 400.0 mg/kg/injection, schedule: Q01DX009 (ip), vehicle: Klucel (hydroxypropylcellulose) (HPC) 100 % of control

N/C(=N/N=C/c1ccncc1)N[N+](=O)[O-]
inactive: [1] 90 % of control

C/C(=N\[N+](C)(C)C)c1ccccc1
inactive: [2] 95 % of control | [3] 109 % of control

O=S(=O)(NC1CCCCC1)c1ccccc1
inactive: dose: 75.0 mg/kg/injection, schedule: Q01DX009 (ip), vehicle: saline with Tween-80 90 % of control | [4] 95 % of control | dose: 150.0 mg/kg/injection, schedule: Q01DX009 (ip), vehicle: saline with Tween-80 90 % of control | dose: 300.0 mg/kg/injection, schedule: Q01DX009 (ip), vehicle: saline with Tween-80 95 % of control | [5] 100 % of control

CCC(CC)C(=O)NC
inactive: dose: 50.0 mg/kg/injection, schedule: Q01DX005 (ip), vehicle: saline with Tween-80 104 % of control | dose: 100.0 mg/kg/injection, schedule: Q01DX005 (ip), vehicle: saline with Tween-80 104 % of control | dose: 200.0 mg/kg/injection, schedule: Q01DX005 (ip), vehicle: saline with Tween-80 95 % of control

O=C(O)C1CCSS1 (stereo not drawn)
inactive: dose: 0.19 mg/kg/injection, schedule: Q01DX009 (ip), vehicle: saline 100 % of control | dose: 0.39 mg/kg/injection, schedule: Q01DX009 (ip), vehicle: saline 91 % of control | dose: 0.78 mg/kg/injection, schedule: Q01DX009 (ip), vehicle: saline 90 % of control and 117 % of control | dose: 1.56 mg/kg/injection, schedule: Q01DX009 (ip), vehicle: saline 96 % of control and 99 % of control | [6] 94 % of control | [7] 94 % of control | [8] 102 % of control and 106 % of control and 108 % of control | [1] 87 % of control and 89 % of control | [2] 103 % of control | [3] 101 % of control

COC(=O)C12OCC34C(CC(C(C)=O)C(C)(CC(=O)O)C3C(O)C1O)OC(=O)C(OC(=O)/C=C(\C)C(C)C)C24 (stereo not drawn)
inactive: dose: 0.25 mg/kg/injection, schedule: Q01DX009 (ip), vehicle: saline 94 % of control | dose: 0.5 mg/kg/injection, schedule: Q01DX009 (ip), vehicle: saline 92 % of control | dose: 2.0 mg/kg/injection, schedule: Q01DX009 (ip), vehicle: saline 92 % of control | dose: 4.0 mg/kg/injection, schedule: Q01DX009 (ip), vehicle: saline 90 % of control

CCCCNC(=S)Nc1sc(C)c(C)c1C(=O)OCC
inactive: [4] 106 % of control | dose: 200.0 mg/kg/injection, schedule: Q04DX003 (ip), vehicle: saline with Tween-80 99 % of control | [5] 99 % of control

NOCc1csc(N)n1
inactive: dose: 75.0 mg/kg/injection, schedule: Q04DX003 (ip), vehicle: saline 91 % of control | dose: 300.0 mg/kg/injection, schedule: Q04DX003 (ip), vehicle: saline 87 % of control

COc1ccc(C2=CC(=O)C(c3ccc(OC)cc3)=CC2=O)cc1
inactive: dose: 5.0 mg/kg/injection, schedule: Q01DX009 (ip), vehicle: gum acacia 87 % of control | dose: 20.0 mg/kg/injection, schedule: Q01DX009 (ip), vehicle: gum acacia 91 % of control | dose: 20.0 mg/kg/injection, schedule: Q04DX003 (ip), vehicle: gum acacia 100 % of control | dose: 40.0 mg/kg/injection, schedule: Q01DX009 (ip), vehicle: gum acacia 95 % of control | dose: 40.0 mg/kg/injection, schedule: Q04DX003 (ip), vehicle: gum acacia 90 % of control | dose: 80.0 mg/kg/injection, schedule: Q01DX009 (ip), vehicle: gum acacia 91 % of control | dose: 80.0 mg/kg/injection, schedule: Q04DX003 (ip), vehicle: gum acacia 95 % of control

CCCSC(CC=O)CCC (stereo not drawn)
inactive: dose: 100.0 mg/kg/injection, schedule: Q01DX001 (ip), vehicle: suspension in saline 106 % of control | dose: 200.0 mg/kg/injection, schedule: Q01DX001 (ip), vehicle: suspension in saline 92 % of control | dose: 400.0 mg/kg/injection, schedule: Q01DX001 (ip), vehicle: suspension in saline 88 % of control

COC(OC)c1[nH]c(=S)[nH]c(=O)c1Cc1ccc(C)c(C)c1
inactive: [9] 103 % of control | [10] 96 % of control | dose: 400.0 mg/kg/injection, schedule: Q01DX009 (ip), vehicle: saline with Tween-80 100 % of control

Cc1cc[n+](C)c2ccccc12
inactive: dose: 9.37 mg/kg/injection, schedule: Q04DX003 (ip), vehicle: saline 100 % of control | dose: 18.75 mg/kg/injection, schedule: Q04DX003 (ip), vehicle: saline 100 % of control

C[N+](C)(C)N=C1CCC2(CC1)c1ccccc1-c1ccccc12
inactive: dose: 5.15 mg/kg/injection, schedule: Q04DX003 (ip), vehicle: saline 95 % of control | [7] 95 % of control | dose: 10.31 mg/kg/injection, schedule: Q04DX003 (ip), vehicle: saline 100 % of control | [8] 91 % of control | dose: 20.62 mg/kg/injection, schedule: Q04DX003 (ip), vehicle: saline 115 % of control | [11] 100 % of control | dose: 35.0 mg/kg/injection, schedule: Q01DX009 (ip), vehicle: saline 113 % of control | dose: 41.25 mg/kg/injection, schedule: Q04DX003 (ip), vehicle: saline 104 % of control | dose: 55.0 mg/kg/injection, schedule: Q01DX009 (ip), vehicle: saline 90 % of control

O=c1c2ccc(Cl)cc2[nH]c2ccc(Cl)cc12
inactive: dose: 25.0 mg/kg/injection, schedule: Q04DX003 (ip), vehicle: saline with Tween-80 103 % of control | dose: 50.0 mg/kg/injection, schedule: Q04DX003 (ip), vehicle: saline with Tween-80 100 % of control | [4] 99 % of control

CCOCCOC(=O)Nc1ccc(C)c(NC(=O)OCCOCC)c1
inactive: dose: 50.0 mg/kg/injection, schedule: Q01DX009 (ip), vehicle: saline with Tween-80 93 % of control | [9] 90 % of control | [10] 100 % of control

Cn1c(Cl)nc2c(Cl)nc(Cl)nc21
inactive: dose: 1.0 mg/kg/injection, schedule: Q01DX009 (ip), vehicle: Klucel (hydroxypropylcellulose) (HPC) 105 % of control | dose: 2.0 mg/kg/injection, schedule: Q01DX009 (ip), vehicle: Klucel (hydroxypropylcellulose) (HPC) 100 % of control | dose: 4.0 mg/kg/injection, schedule: Q01DX009 (ip), vehicle: Klucel (hydroxypropylcellulose) (HPC) 110 % of control | dose: 8.0 mg/kg/injection, schedule: Q01DX009 (ip), vehicle: Klucel (hydroxypropylcellulose) (HPC) 105 % of control | dose: 16.0 mg/kg/injection, schedule: Q01DX009 (ip), vehicle: Klucel (hydroxypropylcellulose) (HPC) 100 % of control

CN(C)Cc1c[nH]c2nccnc12
inactive: [6] 95 % of control | [7] 109 % of control | [8] 101 % of control | [11] 93 % of control | dose: 25.0 mg/kg/injection, schedule: Q04DX003 (ip), vehicle: saline 99 % of control | [1] 100 % of control | [2] 100 % of control and 101 % of control | dose: 100.0 mg/kg/injection, schedule: Q01DX009 (ip), vehicle: saline 100 % of control | [3] 92 % of control and 100 % of control

COc1cc(Nc2nc(Cl)ncc2[N+](=O)[O-])cc(OC)c1OC
inactive: dose: 100.0 mg/kg/injection, schedule: Q01DX001 (ip), vehicle: saline with Tween-80 104 % of control | dose: 200.0 mg/kg/injection, schedule: Q01DX001 (ip), vehicle: saline with Tween-80 100 % of control | dose: 400.0 mg/kg/injection, schedule: Q01DX001 (ip), vehicle: saline with Tween-80 100 % of control
